Legend:
[1] = in solvent, exposed to light; known; cited from earlier work
[2] = Pharmacokinetics of ezogabine prodrugs in rat (IV, IM, PO); conditions: male Sprague Dawley rats, PO 20 mg/kg
Experimental: (§1) Blood was diluted by 10% with these stabilizers.
(§2) Extraction of the molecules was conducted by taking a 50 uL aliquot of plasma and adding 200 uL of acetonitrile containing 200 ng/mL tolbutamide as the internal standard. Samples were precipitated in a 96 well plate, centrifuges and an aliquot transferred to a new plate, dried down under heat and nitrogen and then reconstituted in the initial mobile phase conditions of the LC-MS/MS method. […] A standard curve was prepared from 5000 ng/mL to 1 ng/mL for each analyte. Concentration data from the bioanalytical run was analyzed by Phoenix Winnonlin version 8 for noncompartmental PK analysis, plotting of concentration time curves and tabulation of PK parameters.
150 uL of blood were collected at predesignated time points. At completion of the study animals were asphyxiated by carbon dioxide gas and exsanguinated for euthanasia.

[3] = human, in vivo; cited from earlier work
[4] = Pharmacokinetics of ezogabine prodrugs in mouse (SC, PO); conditions: male mice, PO 20 mg/kg, plasma
Experimental: as §1
as §2, with “noncompartmental sparse sampling” for “noncompartmental”
Animals were asphyxiated by carbon dioxide gas, blood was collected by cardiac stick and they were euthanized by cervical dislocation.

[5] = Acid and organic solution stability, HPLC-UV 250 nm; conditions: for Colour of solution: by Day 9; for Degradation / conversion to ezogabine in solution: up to 3 weeks, acidic solutions and organic solvents; for Ezogabine Area: room temp., normal light
Experimental: An HPLC-UV Vis method was developed using 0.1% Formic acid in water as mobile phase A and 0.1% Formic acid in acetonitrile as mobile Phase B. A gradient method was developed ramping from 10% A to 90% B over 8 minutes and then returning to 10% A at 8.5 minutes on a 4.6×50 mm Zorbax C-18 column. Injections of 10 uL of stability solutions were injected for analyte detection.
[…] Aliquots were collected at serial time points and then diluted to a nominal concentration of 100 ug/mL for injection to the HPLC and 250 nm monitored by the diode array detector. Data at approximately 10 days is presented.
Aliquots were collected at serial time points and then diluted to a nominal concentration of 100 ug/mL for injection to the HPLC and 250 nm monitored by the diode array detector.
(§3) It was also evaluated at 2 N HCl at 37° C. Aliquots were collected at serial time points and then diluted to a nominal concentration of 100 ug/mL for injection to the HPLC and 250 nm monitored by the diode array detector.
as §3, §3, §3

[6] = Drug concentration analysis after MES in CF-1 mice; conditions: for Plasma concentration of Compound 1 relative to administration of Compound 1 alone: CF-1, mouse, in vivo, ip
Source text: (§4) Each male CF-1 mouse provided one data point in the MES assay and one data point in the concentration analysis. There were 8 mice per time point.

[7] = Rat PK at equimolar dose to Ezogabine in 0.5% methylcellulose; conditions: for AUClast/D, analyte = dosed prodrug: male, rat, in vivo, 20 mg/kg; for Exposure of ezogabine compared with ezogabine itself (dose normalized AUC): rats, equimolar dose to Ezogabine (20 mg/kg)
Experimental: (§5) Blood samples were collected at the same time points over 24 hours to generate a concentration time profile. Two male rats were dosed per group. Plasma samples were analyzed by LC/MS/MS and the resulting concentration time profiles and PK parameters are provided.
as §5, §5

[8] = Benchtop solution stability exposed to light, HPLC-UV 230 nm; type: physicochemical
Experimental: Compounds in solvent were left on the benchtop exposed to light for up to 7 days since it is known that Compound 1 will degrade with light within 3-7 days.
Stability was assessed by taking an aliquot from the solubility vials at each test day. A single replicate was injected for each test condition.
Samples were injected onto an HPLC system with an aqueous mobile phase and acetonitrile organic phase and compounds were separated on a C8 50×2 mm column. Wavelength 230 nm was monitored for absorption and integrated for peak area while the mass spectrometer was used to confirm mass. Samples were tested on Day 1 and on subsequent days through Day 7.

[9] = tested on: CCI model of neuropathic pain; assay: CCI model of neuropathic pain (pin prick, von Frey); type: in vivo, rat; conditions: male Sprague Dawley rats
Experimental: Compound 3 was tested for reversal of mechanical hypersensitivity to the pin prick test for hindlimb paw withdraw and the von Frey hairs for gram force mechanical allodynia in the CCI model of neuropathic pain. Male Sprague Dawley rats (n=8/group) were tested for baseline sensitivity on Day 1 (ipsilateral and contralateral paws) and administered XYG-203 orally; 40 mg/kg on Day 1, 20 mg/kg Day 3, 10 mg/kg Day 5, 5 mg/kg Day 7, 1 mg/kg Day 10 and baseline on Day 12. Mechanical hypersensitivity was tested 1 h after pretreatment. Data (mean±SD) were analyzed with a repeated measures ANOVA with Dunnet's adjustment for multiple comparisons.

MES Induced Seizures [10] = assay: Maximal electroshock (MES) test in SD rats; type: in vivo, rat; conditions: IM 75 mg/kg
Experimental: All treatments were at 0.083, 0.25, 0.5, 1, 2, 4, and 8 hours prior to the administration of MES test, where 6 seconds where 6 seconds without a seizure was considered protected.

[11] = rat, 6 h, 1000 ng/mL
Experimental: Plasma was collected by the biomaterial vendor and kept frozen at −20° C.
The samples were analyzed by HPLC separation and mass spectrometry detection for prodrug amount, relative to a baseline time 0 control sample. Triplicate samples were generated at each time point and the peak area response was averaged and converted to a percent of baseline control.

[12] = tested on: 5% formalin intraplantar injection; assay: Formalin inflammatory model (hind paw flicks/licks); type: in vivo, mouse; conditions: 100 mg/kg in water SC 30 minutes before 5% formalin; both phases (0-10 min, 15-40 min)
Experimental: Compound 4 was assessed in the rat formalin inflammatory model. The number of flicks/licks of a male CD-1 mouse in the acute phase 0-10 minute and the inflammatory phase from 15-40 min after intraplantar administration of 50 μL of 5% formalin was recorded. […] Data is presented over the duration of the observation periods in 2 minute bins.

MES induced seizures [13] = assay: Maximal electroshock (MES) test in CF-1 mice; type: in vivo, mouse; conditions: IP 1.5, 3, 6, 12 and 24 mg/kg
Experimental: All treatments were administered 30 minutes prior to MES, except for Phenytoin which was administered 1 h prior.
as §4

CCOC(=O)Nc1ccc(NCc2ccc(F)cc2)cc1N [Compound 1, Ezogabine]
Time within which compound degrades with light [1]: 3 to 7 days | Cmax/D, analyte Cmpd 1 [2]: 44.8 ng/mL/mg/kg | AUClast/D, analyte Cmpd 1 ([2]; AUClast […] h): 280 ng·h/mL/mg/kg | Adverse reaction rate: abnormal coordination [3]: 7% | Adverse reaction rate: aphasia [3]: 4% | Adverse reaction rate: asthenia [3]: 5% | Adverse reaction rate: balance disorder [3]: 4% | Adverse reaction rate: blurred vision [3]: 5% | Adverse reaction rate: confusional state [3]: 9% | Adverse reaction rate: diplopia [3]: 7% | Adverse reaction rate: disturbance in attention [3]: 6% | Adverse reaction rate: dizziness [3]: 23% | Adverse reaction rate: dysarthria [3]: 4% | Adverse reaction rate: fatigue [3]: 15% | Adverse reaction rate: gait disturbance [3]: 4% | Adverse reaction rate: memory impairment [3]: 6% | Adverse reaction rate: somnolence [3]: 22% | Adverse reaction rate: tremor [3]: 8% | Adverse reaction rate: vertigo [3]: 8% | Cmax/D, analyte Cmpd 1 [4]: 148 ng/mL/mg/kg | AUClast/D, analyte Cmpd 1 ([4]; AUClast 6 h): 190 ng·h/mL/mg/kg | Day by which solution was turning light purple (indicating degradation) ([5]; 5 mg/mL, acid solutions, room temperature): up to 2 Day | Day at which solution began turning purple ([5]; 5 mg/mL, organic solvent solutions, room temperature): ≥ 7 days

CCOC(=O)Nc1ccc(NCc2ccc(F)cc2)cc1NC(=O)OC(C)OC(=O)C(C)C (stereo not shown) [Compound 3]
Plasma concentration of Compound 1 relative to administration of Compound 1 alone [6]: 5.5 fold | AUClast/D, analyte = dosed prodrug [7]: 0.0136 ng·h/mL/mg/kg | Stability in solvent ([8]; 0.1 N HCl, over 4 days): appears to be stable | Stability in solvent ([8]; ethanol and methanol): stable through 3 days | Colour of solution ([5]; 5 mg/mL, 0.1 N HCl): turned a light tan | Colour of solution ([5]; 5 mg/mL, 1 N HCl): turned a golden yellow | Solution clear and colorless through ([5]; 5 mg/mL, organic solvents): ≥ 18 days | Degradation / conversion to ezogabine in solution ([5]; 5 mg/mL): converts to ezogabine under acidic conditions but does not in organic solvent | Ezogabine Area ([5]; 0.1N HCl, 433 h): 400 mAU | Ezogabine Area ([5]; Acetonitrile, 435 h): 51 mAU | Ezogabine Area ([5]; Ethanol, 390 h): 43 mAU | Ezogabine Area ([5]; Methanol, 435 h): 41 mAU | Mechanical hypersensitivity versus baseline ([9]; oral 5 mg/kg): 95% confidence intervals did not cross the baseline mean | Gram force to paw lift (von Frey) ([9]; oral 40 mg/kg, 1 h after pretreatment): increased the gram force to paw lift significantly | Reduction of latency of neuropathic ipsilateral paw withdrawal (pin prick) ([9]; oral 40 mg/kg, 1 h after pretreatment, p=0.0003): 9.2 s

CCOC(=O)Nc1ccc(NCc2ccc(F)cc2)cc1NC(=O)[C@@H](N)CCCCN [Compound 4]
Protection from MES seizures (MES Induced Seizures [10]; 2 through 8 hours post dose): fully protected | Protection from MES seizures (MES Induced Seizures [10]; 1 h post dose): almost fully protected | Plasma concentration of Compound 1 relative to administration of Compound 1 alone [6]: 9 fold | AUClast/D, analyte = dosed prodrug [7]: 6.26 ng·h/mL/mg/kg | Exposure of ezogabine compared with ezogabine itself (dose normalized AUC) [7]: similar | Stability in plasma [11]: stable through 6 hours | Reduction in behavioral response (flicks/licks) compared to vehicle [12]: 50% | Solution remained clear and colorless through ([5]; 5 mg/mL, all test solutions): ≥ 18 days | Degradation / conversion to ezogabine in solution ([5]; 5 mg/mL): very little degradation to ezogabine | Ezogabine Area ([5]; 0.1N HCl, 269 h): 0 mAU | Ezogabine Area ([5]; 1N HCl, 269 h): 0 mAU | Ezogabine Area ([5]; 2N HCl, 269 h): 38 mAU | Ezogabine Area ([5]; Methanol, 437 h): 0 mAU | Ezogabine Area ([5]; PBS, 435 h): 0 mAU

CCOC(=O)Nc1ccc(NCc2ccc(F)cc2)cc1NC(=O)[C@H](N)CO [Compound 6]
AUClast/D, analyte = dosed prodrug [7]: 199 ng·h/mL/mg/kg | Exposure of ezogabine compared with ezogabine itself (dose normalized AUC) [7]: similar | Solution remained clear and colorless through ([5]; 5 mg/mL, all test solutions): ≥ 18 days | Degradation / conversion to ezogabine in solution ([5]; 5 mg/mL): very little degradation to ezogabine | Ezogabine Area ([5]; 1N HCl, 437 h): 58 mAU

CCOC(=O)Nc1ccc(NCc2ccc(F)cc2)cc1NC(=O)C[C@@H](CN)CC(C)C [Compound 28]
Concentration of prodrug relative to ezogabine ([6]; CF-1 mice, IP, 30 minutes): present at higher concentrations than ezogabine | AUClast/D, analyte = dosed prodrug [7]: 83.0 ng·h/mL/mg/kg | Exposure of ezogabine compared with ezogabine itself (dose normalized AUC) [7]: lower exposure | Complete protection against MES induced seizures (MES induced seizures [13]): None of the doses showed complete protection | Solution remained clear and colorless through ([5]; 5 mg/mL, acidic solutions): ≥ 18 days | Solution remained clear and colorless through ([5]; 5 mg/mL, acidic solutions and acetonitrile): ≥ 11 days | Degradation / conversion to ezogabine in solution ([5]; 5 mg/mL): degradation to ezogabine with increasing strength of the acidic solution | Ezogabine Area ([5]; 0.1N HCl, 440 h): 0 mAU | % Remaining ([5]; 440 h, 5 mg/mL): 92.0% | Ezogabine Area ([5]; Methanol, 440 h): 0 mAU

Source: patent publication US20240300894A1, “PRODRUGS OF KV7 CHANNEL OPENERS” (Xyzagen, Inc., priority 2021, published 2024)
